Experimental data: ChEMBL document CHEMBL5291721, “A preclinical secondary pharmacology resource illuminates target-adverse drug reaction associations of marketed drugs” (Nat Commun, 2023)
Values belong to the molecule of their own block, whether it stands above or below them. *1 amine or outer side, *2 acyl side, *3 side chain or, on linkers, in order; H or OH if unused. Where a SMILES comes first, the peptide text is derived from it. Bridges are numbered along the chain shown (N, C = ends). [ ]: non-standard residue; d: D form. The star is where a group is joined. hTyr(3S-OH,4S-OH,3'-OSO3H) = N[C@H](C(=O)O)[C@H](O)[C@@H](O)c1ccc(O)c(OS(=O)(=O)O)c1; Orn(4R-OH,5R-OH) = O=C([C@H](C[C@@H](O)[C@@H](O)N[*:3])N[*:1])[*:2]; Pro(3S-OH,4S-Me) = C[C@H]1CN[C@H](C(=O)O)[C@H]1O; X1 = CCCCCOc1ccc(-c2cc(-c3ccc(C(=O)*)cc3)no2)cc1; Gln(3R-OH) = NC(=O)C[C@@H](O)[C@H](N)C(=O)O; Hyp = O=C(O)[C@@H]1C[C@@H](O)CN1

Experiments:
Adenosine receptor A3 = target: T1, Adenosine receptor A3 (Homo sapiens, UniProt P0DMS8)
T1 sequence (P0DMS8 whole entry): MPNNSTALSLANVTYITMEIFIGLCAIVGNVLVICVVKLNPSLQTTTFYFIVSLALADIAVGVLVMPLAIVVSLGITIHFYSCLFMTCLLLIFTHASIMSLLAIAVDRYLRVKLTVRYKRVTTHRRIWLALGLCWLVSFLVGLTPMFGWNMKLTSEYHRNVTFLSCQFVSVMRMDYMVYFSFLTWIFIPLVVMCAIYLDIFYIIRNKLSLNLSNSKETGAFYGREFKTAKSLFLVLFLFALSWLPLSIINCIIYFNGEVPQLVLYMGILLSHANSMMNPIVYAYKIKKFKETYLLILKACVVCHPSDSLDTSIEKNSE

[1] = target: T2, Muscarinic acetylcholine receptor M2 (Homo sapiens, UniProt P08172); format: functional, cell-based
T2 sequence (P08172 whole entry): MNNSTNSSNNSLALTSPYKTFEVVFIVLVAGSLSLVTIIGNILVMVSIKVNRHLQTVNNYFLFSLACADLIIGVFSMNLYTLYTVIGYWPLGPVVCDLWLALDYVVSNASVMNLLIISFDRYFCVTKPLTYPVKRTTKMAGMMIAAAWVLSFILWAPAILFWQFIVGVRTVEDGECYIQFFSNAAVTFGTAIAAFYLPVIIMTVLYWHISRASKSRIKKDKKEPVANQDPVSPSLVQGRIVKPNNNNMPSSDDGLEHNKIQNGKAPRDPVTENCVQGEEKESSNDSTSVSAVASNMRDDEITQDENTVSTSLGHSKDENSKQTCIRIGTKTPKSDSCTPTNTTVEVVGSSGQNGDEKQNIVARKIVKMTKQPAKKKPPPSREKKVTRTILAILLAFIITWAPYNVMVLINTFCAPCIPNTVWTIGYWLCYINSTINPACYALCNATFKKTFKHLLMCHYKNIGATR

Vasopressin V1a receptor = Vasopressin V1a receptor (Homo sapiens, UniProt P37288)
[2] = target: Delta-type opioid receptor (Homo sapiens, UniProt P41143)
[3] = target: T3, Prostaglandin G/H synthase 1 (Rattus norvegicus, UniProt Q63921); format: functional
T3 sequence (Q63921 whole entry): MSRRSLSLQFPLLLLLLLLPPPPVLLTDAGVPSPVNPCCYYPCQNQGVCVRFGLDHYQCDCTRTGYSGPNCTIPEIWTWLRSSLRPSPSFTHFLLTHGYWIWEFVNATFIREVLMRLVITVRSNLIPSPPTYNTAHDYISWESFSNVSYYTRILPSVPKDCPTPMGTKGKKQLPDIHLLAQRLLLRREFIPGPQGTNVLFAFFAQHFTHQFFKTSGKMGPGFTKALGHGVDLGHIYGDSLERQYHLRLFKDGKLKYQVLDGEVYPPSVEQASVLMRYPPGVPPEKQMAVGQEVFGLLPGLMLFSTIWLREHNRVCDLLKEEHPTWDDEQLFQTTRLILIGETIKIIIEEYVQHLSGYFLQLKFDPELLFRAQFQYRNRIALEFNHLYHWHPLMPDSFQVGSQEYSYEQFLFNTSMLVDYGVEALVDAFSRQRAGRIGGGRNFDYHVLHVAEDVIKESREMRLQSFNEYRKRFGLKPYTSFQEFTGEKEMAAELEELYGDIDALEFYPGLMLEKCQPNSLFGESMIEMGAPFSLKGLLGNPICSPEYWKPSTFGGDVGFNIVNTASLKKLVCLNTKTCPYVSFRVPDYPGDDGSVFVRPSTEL

Melanocortin receptor 3 = Melanocortin receptor 3 (Homo sapiens, UniProt P41968)
[4] = target: T4, Alpha-2C adrenergic receptor (Homo sapiens, UniProt P18825); format: functional
T4 sequence (P18825 whole entry): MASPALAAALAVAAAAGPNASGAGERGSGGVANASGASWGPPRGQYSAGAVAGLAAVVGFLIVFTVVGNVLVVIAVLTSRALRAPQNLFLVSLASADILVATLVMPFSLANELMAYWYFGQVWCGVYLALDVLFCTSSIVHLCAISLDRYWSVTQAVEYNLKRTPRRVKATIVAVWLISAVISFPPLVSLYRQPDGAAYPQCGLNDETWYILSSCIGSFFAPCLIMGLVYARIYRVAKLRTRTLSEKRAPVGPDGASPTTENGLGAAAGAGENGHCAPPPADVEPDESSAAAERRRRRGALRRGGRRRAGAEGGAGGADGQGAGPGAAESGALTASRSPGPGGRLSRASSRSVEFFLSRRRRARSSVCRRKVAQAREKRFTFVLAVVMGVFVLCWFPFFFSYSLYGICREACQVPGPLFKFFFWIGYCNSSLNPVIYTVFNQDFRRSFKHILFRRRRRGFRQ

[5] = target: 3',5'-cyclic-AMP phosphodiesterase 4D (Homo sapiens, UniProt Q08499); format: functional
[6] = target: T5, Neuropeptide Y receptor type 1 (Homo sapiens, UniProt P25929)
T5 sequence (P25929 whole entry): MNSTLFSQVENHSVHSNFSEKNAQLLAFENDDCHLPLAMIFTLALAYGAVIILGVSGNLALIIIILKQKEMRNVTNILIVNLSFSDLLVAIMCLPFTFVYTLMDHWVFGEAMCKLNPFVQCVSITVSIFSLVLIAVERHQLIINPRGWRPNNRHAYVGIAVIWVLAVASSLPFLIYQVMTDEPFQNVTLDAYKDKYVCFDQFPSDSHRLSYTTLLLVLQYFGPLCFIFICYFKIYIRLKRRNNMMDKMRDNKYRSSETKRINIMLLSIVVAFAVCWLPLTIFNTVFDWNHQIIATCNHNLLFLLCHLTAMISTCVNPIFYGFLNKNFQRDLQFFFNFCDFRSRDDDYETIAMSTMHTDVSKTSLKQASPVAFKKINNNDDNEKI

[7] = target: Gamma-aminobutyric acid receptor subunit alpha-1 (Rattus norvegicus, UniProt P62813)
[8] = target: Glutamate receptor ionotropic, NMDA 1 (Rattus norvegicus, UniProt P35439)
Further: assay procedure not described here.

Gamma-aminobutyric acid receptor subunit alpha-1, sequence (P62813 whole entry): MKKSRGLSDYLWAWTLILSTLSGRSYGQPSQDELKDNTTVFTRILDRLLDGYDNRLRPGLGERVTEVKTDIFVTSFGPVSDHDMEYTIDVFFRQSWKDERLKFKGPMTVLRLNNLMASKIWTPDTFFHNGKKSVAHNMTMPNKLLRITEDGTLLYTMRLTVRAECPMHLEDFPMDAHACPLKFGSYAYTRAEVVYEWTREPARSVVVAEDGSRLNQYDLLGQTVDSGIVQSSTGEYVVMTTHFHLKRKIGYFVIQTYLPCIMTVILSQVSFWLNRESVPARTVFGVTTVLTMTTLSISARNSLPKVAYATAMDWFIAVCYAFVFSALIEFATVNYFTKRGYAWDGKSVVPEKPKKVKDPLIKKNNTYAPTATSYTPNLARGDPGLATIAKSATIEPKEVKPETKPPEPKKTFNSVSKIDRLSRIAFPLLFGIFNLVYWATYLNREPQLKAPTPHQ
Delta-type opioid receptor, sequence (P41143 whole entry): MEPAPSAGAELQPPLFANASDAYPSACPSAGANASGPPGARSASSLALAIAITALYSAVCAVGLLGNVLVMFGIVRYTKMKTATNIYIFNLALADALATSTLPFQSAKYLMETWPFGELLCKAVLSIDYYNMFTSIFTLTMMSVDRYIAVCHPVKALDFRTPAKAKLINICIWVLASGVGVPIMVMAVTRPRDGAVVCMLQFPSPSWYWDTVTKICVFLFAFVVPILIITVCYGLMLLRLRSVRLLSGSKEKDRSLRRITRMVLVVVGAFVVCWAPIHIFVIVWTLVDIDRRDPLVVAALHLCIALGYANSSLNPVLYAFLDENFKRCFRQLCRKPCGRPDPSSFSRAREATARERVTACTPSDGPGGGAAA
Melanocortin receptor 3, sequence (P41968 whole entry): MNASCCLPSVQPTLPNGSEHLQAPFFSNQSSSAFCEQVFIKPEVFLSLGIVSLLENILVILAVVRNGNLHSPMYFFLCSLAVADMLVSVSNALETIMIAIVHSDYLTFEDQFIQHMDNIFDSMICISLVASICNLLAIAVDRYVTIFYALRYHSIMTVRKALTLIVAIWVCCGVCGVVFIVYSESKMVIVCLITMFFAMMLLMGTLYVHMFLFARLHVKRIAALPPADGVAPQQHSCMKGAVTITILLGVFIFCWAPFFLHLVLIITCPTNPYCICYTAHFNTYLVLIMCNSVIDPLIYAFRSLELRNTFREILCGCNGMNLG
Vasopressin V1a receptor, sequence (P37288 whole entry): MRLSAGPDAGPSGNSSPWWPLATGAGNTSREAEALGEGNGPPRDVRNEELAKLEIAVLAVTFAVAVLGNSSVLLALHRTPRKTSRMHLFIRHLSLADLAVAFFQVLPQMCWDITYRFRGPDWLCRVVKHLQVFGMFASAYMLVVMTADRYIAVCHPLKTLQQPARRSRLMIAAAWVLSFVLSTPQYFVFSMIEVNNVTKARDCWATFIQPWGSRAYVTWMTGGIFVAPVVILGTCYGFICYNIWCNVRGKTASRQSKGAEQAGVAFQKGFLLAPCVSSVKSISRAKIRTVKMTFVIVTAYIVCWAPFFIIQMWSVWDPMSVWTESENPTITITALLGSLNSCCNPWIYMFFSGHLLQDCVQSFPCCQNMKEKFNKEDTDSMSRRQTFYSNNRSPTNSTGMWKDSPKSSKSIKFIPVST
3',5'-cyclic-AMP phosphodiesterase 4D, sequence (Q08499 whole entry): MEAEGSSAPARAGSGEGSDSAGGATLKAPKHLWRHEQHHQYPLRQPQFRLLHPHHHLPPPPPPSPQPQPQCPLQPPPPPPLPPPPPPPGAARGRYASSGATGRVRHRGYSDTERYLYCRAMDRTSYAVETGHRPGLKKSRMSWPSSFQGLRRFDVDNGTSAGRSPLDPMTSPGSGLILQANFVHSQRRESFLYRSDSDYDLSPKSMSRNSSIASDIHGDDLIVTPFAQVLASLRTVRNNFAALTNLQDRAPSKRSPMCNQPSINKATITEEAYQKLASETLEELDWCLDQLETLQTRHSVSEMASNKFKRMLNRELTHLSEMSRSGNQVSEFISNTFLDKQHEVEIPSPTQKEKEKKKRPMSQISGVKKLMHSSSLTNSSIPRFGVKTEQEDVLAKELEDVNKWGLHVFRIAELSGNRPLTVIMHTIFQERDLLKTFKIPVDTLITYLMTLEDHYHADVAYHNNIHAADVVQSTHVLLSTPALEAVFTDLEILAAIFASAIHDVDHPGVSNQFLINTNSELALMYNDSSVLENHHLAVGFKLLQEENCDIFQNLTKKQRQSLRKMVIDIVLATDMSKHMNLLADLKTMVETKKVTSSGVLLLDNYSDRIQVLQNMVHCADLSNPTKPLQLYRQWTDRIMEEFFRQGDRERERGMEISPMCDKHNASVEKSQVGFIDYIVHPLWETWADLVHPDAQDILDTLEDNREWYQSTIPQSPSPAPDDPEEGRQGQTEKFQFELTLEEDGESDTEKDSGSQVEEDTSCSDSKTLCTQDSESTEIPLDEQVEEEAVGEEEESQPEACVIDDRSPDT

SMILES: Cc1ccc([C@@H]2O[C@H](CO)[C@@H](O)[C@H](O)[C@H]2O)cc1Cc1ccc(-c2ccc(F)cc2)s1 [CANAGLIFLOZIN ANHYDROUS]
AC50 (Adenosine receptor A3): 18.4 µM

SMILES: O=C(O)CCCc1ccc(N(CCCl)CCCl)cc1 [CHLORAMBUCIL]
AC50 (Adenosine receptor A3): > 30 µM

SMILES: CN(C)CCN(Cc1ccc(Cl)cc1)c1ccccn1 [CHLOROPYRAMINE]
AC50 (Adenosine receptor A3): > 30 µM

SMILES: O=C(O)c1cc(=O)c2ccccc2o1 [CHROMOCARB]
AC50 (Adenosine receptor A3): > 30 µM

SMILES: CN(CC(=O)O)C(=N)N [CREATINE]
AC50 (Adenosine receptor A3): > 30 µM

SMILES: N[C@@H](CSSC[C@H](N)C(=O)O)C(=O)O [CYSTINE]
AC50 (Adenosine receptor A3): > 30 µM

SMILES: Cn1c(=O)c2c(ncn2CC(O)CO)n(C)c1=O (configuration not stated) [DYPHYLLINE]
AC50 (Adenosine receptor A3): > 30 µM

SMILES: C#Cc1cccc(Nc2ncnc3cc(OCCOC)c(OCCOC)cc23)c1 [ERLOTINIB]
AC50 [1]: > 30 µM
AC50 (Adenosine receptor A3): 3.01 µM
AC50 (Vasopressin V1a receptor): > 30 µM
AC50 [2]: > 30 µM
AC50 [3]: > 30 µM
AC50 (Melanocortin receptor 3): > 30 µM
AC50 [4]: > 30 µM
AC50 [5]: > 30 µM

SMILES: C[C@]12CC[C@@H]3c4ccc(O)cc4CC[C@H]3[C@@H]1CC[C@@H]2OC(=O)CCC1CCCC1 [ESTRADIOL CYPIONATE]
AC50 (Adenosine receptor A3): 9.98 µM

SMILES: CC1(C)O[C@@H]2C[C@H]3[C@@H]4CCC5=CC(=O)CC[C@]5(C)[C@@]4(F)[C@@H](O)C[C@]3(C)[C@]2(C(=O)CCl)O1 [HALCINONIDE]
AC50 (Adenosine receptor A3): > 30 µM

SMILES: C[C@]12CCC(=O)C=C1CC[C@@H]1[C@@H]2[C@@H](O)C[C@@]2(C)[C@H]1CC[C@]2(O)C(=O)COC(=O)CCC(=O)O [HYDROCORTISONE HEMISUCCINATE ANHYDROUS]
AC50 (Adenosine receptor A3): > 30 µM

SMILES: N=C(N)NCc1cccc([123I])c1 [IOBENGUANE I 123]
AC50 (Adenosine receptor A3): > 30 µM

SMILES: C=C1c2c(Cl)ccc(O)c2C(=O)C2=C(O)[C@]3(O)C(=O)C(C(N)=O)=C(O)[C@@H](N(C)C)[C@@H]3[C@@H](O)[C@H]12 [MECLOCYCLINE]
AC50 (Adenosine receptor A3): > 30 µM

SMILES: Cc1cc2c(OCC(O)CNC(C)C)cccc2[nH]1 (configuration not stated) [MEPINDOLOL]
AC50 (Adenosine receptor A3): > 30 µM

SMILES: CC(=O)/N=c1/sc(S(N)(=O)=O)nn1C [METHAZOLAMIDE]
AC50 [6]: > 10 µM
AC50 [1]: > 10 µM
AC50 (Adenosine receptor A3): > 30 µM
AC50 (Vasopressin V1a receptor): > 10 µM
AC50 [2]: > 30 µM
AC50 [7]: > 10 µM
AC50 [8]: > 10 µM
AC50 [3]: > 10 µM
AC50 (Melanocortin receptor 3): > 10 µM
AC50 [4]: > 10 µM
AC50 [5]: > 30 µM

SMILES: CCCCCOc1ccc(-c2cc(-c3ccc(C(=O)N[C@H]4C[C@@H](O)[C@@H](O)NC(=O)[C@@H]5[C@@H](O)[C@@H](C)CN5C(=O)[C@H]([C@H](O)CC(N)=O)NC(=O)[C@H]([C@H](O)[C@@H](O)c5ccc(O)c(OS(=O)(=O)O)c5)NC(=O)[C@@H]5C[C@@H](O)CN5C(=O)[C@H]([C@@H](C)O)NC4=O)cc3)no2)cc1 [MICAFUNGIN] (X1-[Orn(4R-OH,5R-OH)]T[Hyp][hTyr(3S-OH,4S-OH,3'-OSO3H)][Gln(3R-OH)][Pro(3S-OH,4S-Me)]; lactam 1-C)
AC50 (Adenosine receptor A3): 11.4 µM

SMILES: CCOc1cc(N)c(Cl)cc1C(=O)NCC1CN(Cc2ccc(F)cc2)CCO1 (configuration not stated) [MOSAPRIDE]
AC50 (Adenosine receptor A3): 14.5 µM

SMILES: CCOc1ccc2ccccc2c1C(=O)N[C@@H]1C(=O)N2[C@@H]1SC(C)(C)[C@@H]2C(=O)O [NAFCILLIN]
AC50 (Adenosine receptor A3): > 30 µM

SMILES: CN1CCC[C@H]1c1cccnc1 [NICOTINE]
AC50 (Adenosine receptor A3): > 30 µM

SMILES: CC(=O)Oc1ccccc1C(=O)Nc1ncc([N+](=O)[O-])s1 [NITAZOXANIDE]
AC50 [6]: 17 µM
AC50 (Adenosine receptor A3): 9.88 µM
AC50 (Vasopressin V1a receptor): 17 µM
AC50 [2]: 5 µM
AC50 [7]: > 30 µM
AC50 [8]: > 30 µM
AC50 [3]: 0.0031 µM
AC50 (Melanocortin receptor 3): 14 µM
AC50 [5]: > 30 µM

SMILES: C#C[C@]1(O)CC[C@H]2[C@@H]3CCC4=C(CCC(=O)C4)[C@H]3CC[C@@]21C [NORETHYNODREL]
AC50 (Adenosine receptor A3): 10.1 µM

AC50 (Adenosine receptor A3): > 30 µM
SMILES: CCCCCCCCCCC[C@@H](C[C@@H]1OC(=O)[C@H]1CCCCCC)OC(=O)[C@H](CC(C)C)NC=O [ORLISTAT]

SMILES: O=C1[C@H]2CCCC[C@H]2C(=O)N1CCCCN1CCN(c2nsc3ccccc23)CC1 [PEROSPIRONE]
AC50 (Adenosine receptor A3): > 30 µM

SMILES: CN(C)CCC(c1ccccc1)c1ccccn1 (configuration not stated) [PHENIRAMINE]
AC50 (Adenosine receptor A3): > 30 µM

SMILES: CNC[C@H](O)c1cccc(O)c1 [PHENYLEPHRINE]
AC50 [6]: > 30 µM
AC50 [1]: > 10 µM
AC50 (Adenosine receptor A3): > 30 µM
AC50 (Vasopressin V1a receptor): > 10 µM
AC50 [2]: > 10 µM
AC50 [7]: > 30 µM
AC50 [8]: > 10 µM
AC50 [3]: > 30 µM
AC50 (Melanocortin receptor 3): > 30 µM
AC50 [5]: > 30 µM

SMILES: CC(C)COc1ccc(CNC(=O)N(Cc2ccc(F)cc2)C2CCN(C)CC2)cc1 [PIMAVANSERIN]
AC50 (Adenosine receptor A3): > 30 µM

SMILES: CC(C)(C)C(=O)NCCCC(=O)O [PIVAGABINE]
AC50 (Adenosine receptor A3): > 30 µM

SMILES: CC(C)[N+](C)(CCOC(=O)C1c2ccccc2Oc2ccccc21)C(C)C [PROPANTHELINE]
AC50 (Adenosine receptor A3): > 30 µM

SMILES: CN(C)C(=O)c1nc(CNC(=O)CN)n(-c2ccc(Cl)cc2C(=O)c2ccccc2Cl)n1 [RILMAZAFONE]
AC50 (Adenosine receptor A3): > 30 µM

SMILES: NC(=O)NS(=O)(=O)c1ccc(N)cc1 [SULFACARBAMIDE]
AC50 (Adenosine receptor A3): > 30 µM

SMILES: CCCCCCCCNC(C)C(O)c1ccc(SC(C)C)cc1 (configuration not stated) [SULOCTIDIL]
AC50 (Adenosine receptor A3): 9.82 µM

SMILES: NCCc1ccc(O)cc1 [TYRAMINE]
AC50 (Adenosine receptor A3): > 30 µM

SMILES: CCCCCCCCCCCCCCCC(=O)OC/C=C(C)/C=C/C=C(C)/C=C/C1=C(C)CCCC1(C)C [VITAMIN A PALMITATE]
AC50 (Adenosine receptor A3): 11.6 µM
